The values that follow come from patent US20160130278A1 (TAISHO PHARMACEUTICAL CO., LTD, priority 2013, published 2016).

The target of this experiment is T1, human type 1 glycine transporter (GlyT1) (Homo sapiens, UniProt P48067).
T1 construct: T98G cells (glioma cells) expressing human type 1 glycine transporter (GlyT1) were used
T1 sequence (P48067 1-706): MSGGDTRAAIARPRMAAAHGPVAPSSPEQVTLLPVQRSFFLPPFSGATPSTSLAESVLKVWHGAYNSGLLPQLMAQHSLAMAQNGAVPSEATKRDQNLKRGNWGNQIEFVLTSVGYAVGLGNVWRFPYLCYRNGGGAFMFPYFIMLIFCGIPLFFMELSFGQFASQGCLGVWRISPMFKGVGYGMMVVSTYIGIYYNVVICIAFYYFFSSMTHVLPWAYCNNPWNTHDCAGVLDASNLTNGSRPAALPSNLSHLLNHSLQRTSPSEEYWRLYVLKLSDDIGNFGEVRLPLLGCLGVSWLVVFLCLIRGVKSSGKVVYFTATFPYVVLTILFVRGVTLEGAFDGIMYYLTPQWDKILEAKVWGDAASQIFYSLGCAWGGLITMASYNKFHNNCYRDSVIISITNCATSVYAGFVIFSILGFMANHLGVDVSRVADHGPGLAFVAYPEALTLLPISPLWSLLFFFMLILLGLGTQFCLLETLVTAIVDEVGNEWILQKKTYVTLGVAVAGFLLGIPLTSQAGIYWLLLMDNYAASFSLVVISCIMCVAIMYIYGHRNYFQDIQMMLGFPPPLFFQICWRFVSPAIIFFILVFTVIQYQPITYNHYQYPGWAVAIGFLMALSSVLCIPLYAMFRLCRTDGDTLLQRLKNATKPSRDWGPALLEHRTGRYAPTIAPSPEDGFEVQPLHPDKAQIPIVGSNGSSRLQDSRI
As to the kind of experiment: Glycine uptake inhibition experiment ([3H]glycine uptake). In kind it is cell-based. Conditions: GlyT1. In outline: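 T98G glioma cells expressing human GlyT1 were pretreated 10 min with compound in HEPES buffer pH 7.4 (0.2% BSA), then incubated with compound plus 250 nM final [3H]glycine for 15 min at room temperature. Intracellular radioactivity was counted after NaOH lysis; 10 μM ALX5407 defined non-specific uptake. IC50 came from 10^−9–10^−5 M curves.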

Structures are written as SMILES. pIC50: −log10 of the molar value.

Turning to `O=C(NC(c1cccc(Cl)n1)[C@]1(O)CC[C@@H](F)CC1)c1nccc(C(F)F)c1Cl` (single isomer, unassigned) [Compound 328, 3-chloro-N-[(6-chloropyridin-2-yl)(cis-4-fluoro-1-hydroxycyclohexyl)methyl]-4-(difluoromethyl)pyridine-2-carboxamide], the negative-log IC50 (pIC50) (usually the negative decadic logarithm of the IC50, by convention in mol/L) is 6.70.
Then `O=C(NC(c1cccc(F)n1)[C@]1(O)CC[C@@H](F)CC1)c1nccc(C(F)(F)F)c1Cl` (single isomer, unassigned) [Compound 329, 3-chloro-N-[(cis-4-fluoro-1-hydroxycyclohexyl)(6-fluoropyridin-2-yl)methyl]-4-(trifluoromethyl)pyridine-2-carboxamide], with 6.85; and `O=C(NC(c1cc(Cl)ccn1)[C@]1(O)CC[C@@H](F)CC1)c1ccnc(C(F)(F)F)c1Cl` (single isomer, unassigned) [Compound 330, 3-chloro-N-[(4-chloropyridin-2-yl)(cis-4-fluoro-1-hydroxycyclohexyl)methyl]-2-(trifluoromethyl)pyridine-4-carboxamide], with 7.25.
For the compound `O=C(NC(c1cc(Cl)ccn1)[C@]1(O)CC[C@@H](F)CC1)c1cccc(C(F)(F)F)c1Cl` (single isomer, unassigned) [Compound 331, 2-chloro-N-[(4-chloropyridin-2-yl)(cis-4-fluoro-1-hydroxycyclohexyl)methyl]-3-(trifluoromethyl)benzamide], the pIC50 was 7.06.
Turning to `O=C(NC(c1cc(Cl)ccn1)[C@]1(O)CC[C@@H](F)CC1)c1nccc(C(F)F)c1Cl` (single isomer, unassigned) [Compound 332, 3-chloro-N-[(4-chloropyridin-2-yl)(cis-4-fluoro-1-hydroxycyclohexyl)methyl]-4-(difluoromethyl)pyridine-2-carboxamide], the pIC50 is 5.85.
Then `O=C(NC(c1cc(Cl)ccn1)[C@]1(O)CC[C@@H](F)CC1)c1cc(C(F)(F)F)ncc1Cl` (single isomer, unassigned) [Compound 333, 5-chloro-N-[(4-chloropyridin-2-yl)(cis-4-fluoro-1-hydroxycyclohexyl)methyl]-2-(trifluoromethyl)pyridine-4-carboxamide], with 5.77.
`O=C(NC(c1cc(Cl)ccn1)[C@]1(O)CC[C@@H](F)CC1)c1nccc2ccccc12` (single isomer, unassigned) [Compound 334, N-[(4-chloropyridin-2-yl)(cis-4-fluoro-1-hydroxycyclohexyl)methyl]isoquinoline-1-carboxamide] gave a pIC50 of 6.05.
Then `O=C(NC(c1cc(Cl)ccn1)[C@]1(O)CC[C@@H](F)CC1)c1ccc(C(F)(F)F)nc1Cl` (single isomer, unassigned) [Compound 335, 2-chloro-N-[(4-chloropyridin-2-yl)(cis-4-fluoro-1-hydroxycyclohexyl)methyl]-6-(trifluoromethyl)pyridine-3-carboxamide], with 6.57; and `O=C(NC(c1cccc(F)c1Cl)[C@]1(O)CC[C@@H](F)CC1)c1cc(-n2nccn2)ccc1Cl` (single isomer, unassigned) [Compound 336, 2-chloro-N-[(2-chloro-3-fluorophenyl)(cis-4-fluoro-1-hydroxycyclohexyl)methyl]-5-(2H-1,2,3-triazol-2-yl)benzamide], with 6.16.
`O=C(NC(c1cccc(F)c1Cl)[C@]1(O)CC[C@@H](F)CC1)c1cc(-n2ccnn2)ccc1Cl` (single isomer, unassigned) [Compound 337, 2-chloro-N-[(2-chloro-3-fluorophenyl)(cis-4-fluoro-1-hydroxycyclohexyl)methyl]-5-(1H-1,2,3-triazol-1-yl)benzamide] showed a pIC50 of 5.72.
The same measure for `O=C(NC(c1cccc(Cl)n1)[C@]1(O)CC[C@@H](F)CC1)c1ccnc(C(F)(F)F)c1Cl` (single isomer, unassigned) [Compound 338, 3-chloro-N-[(6-chloropyridin-2-yl)(cis-4-fluoro-1-hydroxycyclohexyl)methyl]-2-(trifluoromethyl)pyridine-4-carboxamide]: 7.02; for `O=C(NC(c1cccc(Cl)n1)[C@]1(O)CC[C@@H](F)CC1)c1ccc(C(F)(F)F)nc1Cl` (single isomer, unassigned) [Compound 339, 2-chloro-N-[(6-chloropyridin-2-yl)(cis-4-fluoro-1-hydroxycyclohexyl)methyl]-6-(trifluoromethyl)pyridine-3-carboxamide]: 6.85.
The compound `O=C(NC(c1cccnc1Cl)C1(O)CCC(F)(F)CC1)c1nccc(C(F)(F)F)c1Cl` (single isomer, unassigned) [Compound 340, 3-chloro-N-[(2-chloropyridin-3-yl)(4,4-difluoro-1-hydroxycyclohexyl)methyl]-4-(trifluoromethyl)pyridine-2-carboxamide] showed a pIC50 of 6.49. This pIC50 lies 0.36 log units lower than the previous one.
Then `O=C(NC(c1cccnc1Cl)C1(O)CCC(F)(F)CC1)c1ccnc(C(F)(F)F)c1Cl` (single isomer, unassigned) [Compound 341, 3-chloro-N-[(2-chloropyridin-3-yl)(4,4-difluoro-1-hydroxycyclohexyl)methyl]-2-(trifluoromethyl)pyridine-4-carboxamide], with 6.07.
The same measure for `O=C(NC(c1cccnc1Cl)C1(O)CCC(F)(F)CC1)c1cc(C(F)(F)F)ncc1Cl` (single isomer, unassigned) [Compound 342, 5-chloro-N-[(2-chloropyridin-3-yl)(4,4-difluoro-1-hydroxycyclohexyl)methyl]-2-(trifluoromethyl)pyridine-4-carboxamide]: 5.92; for `O=C(NC(c1cccnc1Cl)C1(O)CCC(F)(F)CC1)c1ccc(C(F)(F)F)nc1Cl` (single isomer, unassigned) [Compound 344, 2-chloro-N-[(2-chloropyridin-3-yl)(4,4-difluroo-1-hydroxycyclohexyl)methyl]-6-(trifluoromethyl)pyridine-3-carboxamide]: 5.64.
The same measure for `O=C(NC(c1cc(Cl)ccn1)C1(O)CCC(F)(F)CC1)c1nccc(C(F)(F)F)c1Cl` (single isomer, unassigned) [Compound 345, 3-chloro-N-[(4-chloropyridin-2-yl)(4,4-difluoro-1-hydroxycyclohexyl)methyl]-4-(trifluoromethyl)pyridine-2-carboxamide]: 6.57.
Compound `O=C(NC(c1cc(Cl)ccn1)C1(O)CCC(F)(F)CC1)c1ccnc(C(F)(F)F)c1Cl` (single isomer, unassigned) [Compound 346, 3-chloro-N-[(4-chloropyridin-2-yl)(4,4-difluoro-1-hydroxycyclohexyl)methyl]-2-(trifluoromethyl)pyridine-4-carboxamide] had a negative logarithm of the IC50 (pIC50) of 6.44.
Then `O=C(NC(c1cccc(Cl)n1)C1(O)CCC(F)(F)CC1)c1ccnc(C(F)(F)F)c1Cl` (single isomer, unassigned) [Compound 347, 3-chloro-N-[(6-chloropyridin-2-yl)(4,4-difluoro-1-hydroxycyclohexyl)methyl]-2-(trifluoromethyl)pyridine-4-carboxamide], with 6.42; and `O=C(NC(c1cc(Cl)ccn1)C1(O)CCC(F)(F)CC1)c1cc(C(F)(F)F)ncc1Cl` (single isomer, unassigned) [Compound 348, 5-chloro-N-[(4-chloropyridin-2-yl)(4,4-difluoro-1-hydroxycyclohexyl)methyl]-2-(trifluoromethyl)pyridine-4-carboxamide], with 6.31.
For the compound `O=C(NC(c1cc(Cl)ccn1)C1(O)CCC(F)(F)CC1)c1nccc2ccccc12` (single isomer, unassigned) [Compound 349, N-[(4-chloropyridin-2-yl)(4,4-difluoro-1-hydroxycyclohexyl)methyl]isoquinoline-1-carboxamide], the pIC50 was 5.96.
Compound `O=C(NC(c1cc(Cl)ccn1)C1(O)CCC(F)(F)CC1)c1ccc(C(F)(F)F)nc1Cl` (single isomer, unassigned) [Compound 350, 2-chloro-N-[(4-chloropyridin-2-yl)(4,4-difluoro-1-hydroxycyclohexyl)methyl]-6-(trifluoromethyl)pyridine-3-carboxamide] showed a pIC50 of 6.21.
The same measure for `O=C(NC(c1cc(Cl)ccn1)C1(O)CCC(F)(F)CC1)c1cccc(C(F)(F)F)c1Cl` (single isomer, unassigned) [Compound 351, 2-chloro-N-[(4-chloropyridin-2-yl)(4,4-difluoro-1-hydroxycyclohexyl)methyl]-3-(trifluoromethyl)benzamide]: 6.82; for `O=C(NC(c1cccc(Cl)n1)C1(O)CCC(F)(F)CC1)c1cccc(C(F)(F)F)c1Cl` (single isomer, unassigned) [Compound 352, 2-chloro-N-[(6-chloropyridin-2-yl)(4,4-difluoro-1-hydroxycyclohexyl)methyl]-3-(trifluoromethyl)benzamide]: 6.82.
